Test results taken from patent US20260159536A1, “AKR1C3-ACTIVATED DNA ALKYLATING AGENT, AND MEDICAL APPLICATION THEREOF” (ASCENTAWITS PHARMACEUTICALS, LTD., priority 2021, published 2026).

Assays:
[1] = Plasma stability test, human; format: in vitro ADME; settings: 37° C.
Procedure: (§1) The pH of the plasma was checked and recorded. Note: a.
(§2) The final concentration of solvent was 0.5%.
(§3) The assay was performed in duplicate. […] The tubes were mixed by vortex for 5 minutes.

[2] = Plasma stability test, rat; format: in vitro ADME; settings: 5 μM, 37° C.
Procedure: as §1, §2, §3

[3] = Plasma stability test, mouse; format: in vitro ADME; settings: 5 μM, 37° C.
Procedure: as §1, §2, §3

[4] = test system: human lung cancer NCI-H460 cells; experiment: In vivo pharmacodynamics, NCI-H460 subcutaneous xenograft model; parameters: species or system BALB/c nude mice; settings: for Relative tumor volume (x ± S) / T/C (%) / TGI (%) / Tumor volume (x ± S): QWx3, i.v.; for Tumor volume (x ± S): in mm³ (unit assumed)
MHCC97H = experiment: Cytotoxicity on hepatocellular carcinoma cell line MHCC97H; format: cell-based
Procedure: If not otherwise specified, IC50 values were measured by the following experimental methods:
a) Cells were plated for 24 hours, and then the compounds acted singly. 99 μL of growth medium was supplemented per well, and then 1 μL of 200× compound was added, gently shaken to ensure uniform mixing, and then placed in a 37° C., 5% CO2 incubator.
b) The cell plate was placed in the incubator for 72 hours.
b) 100 μL of CTG reagent (CelltiterGlo kit) was added to each well, the plate was placed in a rapid oscillator and shaken for 2 minutes, and then placed at room temperature for 30 minutes away from light.
The IC50 was calculated using GraphPad Prism 8 software and the IC50 (half inhibitory concentration) of the compounds was obtained using the following non-linear fitting formula: […]
Using the same experimental methods as described above, Compounds A, B and C were further tested for cytotoxicity against different hepatocellular carcinoma (HCC) cell lines SNU354, SNU886, MHCC97H and huH-1, and the results were shown in Table 2 below: […]

[5] = MTD assay and toxicokinetics of Compound A, single 30 min intravenous infusion
[6] = test system: HuPrime model LI1005 human liver cancer; experiment: In vivo pharmacodynamics, liver cancer LI1005 PDX model; parameters: species or system BALB/c nude mice; settings: 1.25 mg/kg i.p.

In the case of `O=[N+]([O-])c1ccc(C(OP(=O)(N2CC2)N2CC2)C(F)(F)F)cc1Oc1ccc(-c2ccc(F)cc2)c(F)c1` (racemic) [Compound A], the “Percentage remaining after 2 hours in plasma” value (from here on “Percentage remaining”) ([1]; Human plasma, 5 μM) is reported as 60.06%, the “remained in plasma after 2 hours” value ([1]; human plasma) is reported as 60.06% and the “Percentage remaining” value [2] is reported as 33.03%. For the same compound, the “Percentage remaining” value [3] was 38.19%, the Tumor volume ([4]; 5 mg/kg i.v., Day 7) was 144.35 mm^3 and the Tumor volume ([4]; 5 mg/kg i.v., Day 10) was 183.15 mm^3. It also gave a Tumor volume ([4]; 5 mg/kg i.v., Day 14) of 198.80 mm^3, a Tumor volume ([4]; 5 mg/kg i.v., Day 17) of 228.87 mm^3 and a Tumor volume ([4]; 5 mg/kg i.v., Day 21) of 253.30 mm^3. For the same compound, the Tumor volume ([4]; 5 mg/kg i.v., Day 24) was 310.83 mm^3, the Tumor volume ([4]; 5 mg/kg i.v., Day 28) was 279.31 mm^3 and the Tumor volume ([4]; 5 mg/kg i.v., Day 31) was 337.78 mm^3. The Tumor volume ([4]; 5 mg/kg i.v., Day 35) was 452.75 mm^3, the “Relative tumor volume (x ± S)” value ([4]; 5 mg/kg, Day 31) was 2.45 ± 0.29 and the “T/C (%)” value ([4]; 5 mg/kg, Day 31) was 18.51%. The “TGI (%)” value ([4]; 5 mg/kg, Day 31) was 81.49%, the “Tumor volume (x ± S)” value ([4]; 5 mg/kg, Day 31) was 337.78 ± 54.37 and the Tumor volume ([4]; 10 mg/kg i.v., Day 7) was 144.21 mm^3. The Tumor volume ([4]; 10 mg/kg i.v., Day 10) was 164.75 mm^3, the Tumor volume ([4]; 10 mg/kg i.v., Day 14) was 151.95 mm^3 and the Tumor volume ([4]; 10 mg/kg i.v., Day 17) was 140.29 mm^3. The Tumor volume ([4]; 10 mg/kg i.v., Day 21) was 138.66 mm^3, the Tumor volume ([4]; 10 mg/kg i.v., Day 24) was 144.36 mm^3 and the Tumor volume ([4]; 10 mg/kg i.v., Day 28) was 149.16 mm^3. For the same compound, the Tumor volume ([4]; 10 mg/kg i.v., Day 31) was 164.13 mm^3, the Tumor volume ([4]; 10 mg/kg i.v., Day 35) was 168.68 mm^3 and the “Relative tumor volume (x ± S)” value ([4]; 10 mg/kg, Day 31) was 1.18 ± 0.27. The “TGI (%)” value ([4]; 10 mg/kg, Day 31) was 91.06%, the Tumor volume ([4]; 15 mg/kg i.v., Day 7) was 145.41 mm^3 and the Tumor volume ([4]; 15 mg/kg i.v., Day 10) was 171.22 mm^3. It also gave a Tumor volume ([4]; 15 mg/kg i.v., Day 14) of 167.54 mm^3, a Tumor volume ([4]; 15 mg/kg i.v., Day 17) of 161.80 mm^3 and a Tumor volume ([4]; 15 mg/kg i.v., Day 21) of 157.66 mm^3. For the same compound, the Tumor volume ([4]; 15 mg/kg i.v., Day 24) was 151.20 mm^3, the Tumor volume ([4]; 15 mg/kg i.v., Day 28) was 134.73 mm^3 and the Tumor volume ([4]; 15 mg/kg i.v., Day 35) was 108.70 mm^3. The “T/C (%)” value ([4]; 15 mg/kg, Day 31) was 6.94%, the “Tumor volume (x ± S)” value ([4]; 15 mg/kg, Day 31) was 125.90 ± 25.46 and the “effect on body weights” value ([4]; 5, 10, 15 mg/kg, at least 31 days) was “no significant effect on the body weights”. The IC50 (MHCC97H; Homo sapiens) was 396 nM, the “ratio A/B” value (MHCC97H; IC50 ratio) was 1.63 and the “ratio A/C” value (MHCC97H; IC50 ratio) was 0.70. The exposure ([5]; 1, 3, 6 mg/kg) was “dose proportional”, the survival ([5]; 1, 3, 6 mg/kg, until planned dissection) was “all animals survived” and the MTD at 14 days ([5]; both, monkey (machins), in vivo, iv) was > 6 mg/kg. The clearance ([5]; both, monkey (machins), plasma, iv) was 22.3 to 45.3 mL/min/kg, the clinical observation ([5]; females, 3 mg/kg and 6 mg/kg) was “slight erythema at the site of the administration” and the clinical observation ([5]; males and females, 6 mg/kg) was “Soft stools”. For the same compound, the Tumor volume ([6]; Day 0) was 102.66 mm^3, the Tumor volume ([6]; Day 3) was 157.94 mm^3 and the Tumor volume ([6]; Day 7) was 198.68 mm^3. It also gave a Tumor volume ([6]; Day 10) of 188.83 mm^3, a Tumor volume ([6]; Day 14) of 196.25 mm^3 and a Tumor volume ([6]; Day 17) of 204.85 mm^3. It also gave a Tumor volume ([6]; Day 21) of 228.87 mm^3 and a Tumor volume ([6]; Day 24) of 256.49 mm^3.
